Results from patent US12319676B2, “Substituted amide compounds useful as farnesoid X receptor modulators” (BRISTOL-MYERS SQUIBB COMPANY, priority 2019, dated 2025).

Biological target: T1, human FXR (Homo sapiens, UniProt Q96RI1)
T1 construct: expressed in transfected cells; host or cells: HEK293 cells stably carrying a 5xGal4 response element-luciferase reporter, transiently transfected with pcDNA3.1-Gal4-FXR
T1 sequence (Q96RI1 262-486 limits assumed): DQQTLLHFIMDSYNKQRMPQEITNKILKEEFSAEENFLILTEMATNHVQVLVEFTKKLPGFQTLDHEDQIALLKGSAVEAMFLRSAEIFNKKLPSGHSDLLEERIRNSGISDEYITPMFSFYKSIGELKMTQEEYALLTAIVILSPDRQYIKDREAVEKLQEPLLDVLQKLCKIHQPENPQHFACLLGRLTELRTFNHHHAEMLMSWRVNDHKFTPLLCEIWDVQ
Test: transient human FXR/Gal4-luciferase reporter assay
Type: cell-based
Settings: Gal4-hFXR fusion construct, luciferase reporter in HEK293 cells; overnight incubation; response as percentage of 8 μM GW-4064 control
Description: The exemplified compounds of the present invention were tested in the transient human FXR/Gal4-luciferase reporter assay, and assay results were reported in Table 1 and Examples 1 to 3 together with other analytical data. A Gal4-hFXR fusion construct reporter system was used as the primary assay to characterize compound activity. A construct including 5 copies of the Gal4 promoter response element upstream of a firefly luciferase reporter cDNA was stably expressed in HEK293 cells. This reporter cell line was maintained in Dulbecco's Modified Eagle's medium (DMEM; Gibco) supplemented with 1% penicillin-streptomycin (P/S) solution, 500 μg/mL Zeocin and 10% charcoal/dextran-treated fetal bovine serum (cs-FBS) at 37° C. in a humidified 5% CO2 atmosphere. Another plasmid was constructed in which the human cytomegalovirus promoter in the pcDNA3.1 vector directs the expression of the cDNA encoding a fusion protein comprised of the DNA binding domain from the Gal4 transcription factor fused to the ligand binding domain from human FXR. The day prior to transfection, the reporter cells in culture are detached from the plate with trypsin and plated into a T75 flask at a sufficient density to achieve approximately 90% confluence the next morning. The transfection reagents are prepared by separately diluting 25 μg of the pcDNA3.1-Gal4-FXR plasmid into 1.87 mL of Opti-MEM (Thermo-Fisher), and 40 μL of Lipofectamine 2000 (Thermo-Fisher) into 1.87 mL of Opti-MEM, and then adding the diluted DNA solution into the diluted Lipofectamine 2000 solution and incubating at room temperature for 15-20 minutes. The mixture is further diluted with 10 mL of a solution comprised of DMEM, 10% cs-FBS, and 1% P/S immediately prior to transferring to the cells. The maintenance culture media is aspirated from the cells and the final transfection mixture is added before the cells are incubated overnight at 37° C. in a humidified 5% CO2 atmosphere. This protocol can be scaled up, and the transiently transfected cells can be cryopreserved in an assay-ready format. For compound testing, 100 nL of the compounds (serial dilutions in DMSO) are dispensed with an Echo acoustic dispenser (Labcyte) into the wells of a Corning/Costar clear bottom 384-well white plate. The transfected cells are harvested, counted, and diluted such that 10-25,000 cells in 25 μL are plated into each well of the 384-well compound assay plate. The compound-treated cells are incubated overnight at 37° C. in a humidified 5% CO2 atmosphere. The next morning 25 μL of Steady-Glo (Promega) are added to each well of the plate, the mixture is incubated for 15 min. with shaking, and luminescence is measured on an Envision (Perkin Elmer) plate reader. Background counts from cells treated with DMSO alone are subtracted from all raw counts, and the corrected values are converted to a percentage of the control response attained with 8 μM GW-4064.

Compound `CC(F)(F)c1nc(C23CCC(CN(C(=O)C4CC4(F)F)c4cccc(Br)c4)(CC2)CC3)no1` (racemic) [Example 31, N-(3-bromophenyl)-N-((4-(5-(1,1-difluoroethyl)-1,2,4-oxadiazol-3-yl)bicyclo[2.2.2]octan-1-yl)methyl)-2,2-difluorocyclopropane-1-carboxamide] has an EC50 of 261 nM.
In the case of `CC(F)(F)c1nc(C23CCC(CN(C(=O)C45CC(F)(C4)C5)c4cccc(Cl)c4)(CC2)CC3)no1` [Example 1, N-(3-chlorophenyl)-N-((4-(5-(1,1-difluoroethyl)-1,2,4-oxadiazol-3-yl)bicyclo[2.2.2]octan-1-yl)methyl)-3-fluorobicyclo[1.1.1]pentane-1-carboxamide], the EC50 is reported as 11 nM.
Compound `CC(F)(F)c1nc(C23CCC(CN(c4cccc(Cl)c4)C(=O)[C@H]4C[C@](O)(C(F)(F)F)C4)(CC2)CC3)no1` [Example 2, N-(3-chlorophenyl)-N-((4-(5-(1,1-difluoroethyl)-1,2,4-oxadiazol-3-yl)bicyclo[2.2.2]octan-1-yl)methyl)-3-hydroxy-3-(trifluoromethyl)cyclobutane-1-carboxamide] has an EC50 of 64 nM.
Work on `CC(F)(F)c1nc(C23CCC(CN(C(=O)C4CCC(F)(F)CC4)c4cccc(Cl)c4)(CC2)CC3)no1` [Example 3, N-(3-chlorophenyl)-N-((4-(5-(1,1-difluoroethyl)-1,2,4-oxadiazol-3-yl)bicyclo[2.2.2]octan-1-yl)methyl)-4,4-difluorocyclohexane-1-carboxamide] yielded an EC50 of 133 nM.
For `CC(F)(F)c1nc(C23CCC(CN(C(=O)C45CC(F)(C4)C5)c4cccc(C#N)c4)(CC2)CC3)no1` [Example 4, N-(3-cyanophenyl)-N-((4-(5-(1,1-difluoroethyl)-1,2,4-oxadiazol-3-yl)bicyclo[2.2.2]octan-1-yl)methyl)-3-fluorobicyclo[1.1.1]pentane-1-carboxamide], the EC50 was 12 nM.
In the case of `CC(F)(F)c1nc(C23CCC(CN(C(=O)C4CC(O)(C(F)(F)F)C4)c4cccc(C#N)c4)(CC2)CC3)no1` (centres unmarked) [Example 5, N-(3-cyanophenyl)-N-((4-(5-(1,1-difluoroethyl)-1,2,4-oxadiazol-3-yl)bicyclo[2.2.2]octan-1-yl)methyl)-3-hydroxy-3-(trifluoromethyl)cyclobutane-1-carboxamide], the EC50 is reported as 164 nM.
For `CC(F)(F)c1nc(C23CCC(CN(C(=O)C4CCC(F)(F)CC4)c4cccc(C#N)c4)(CC2)CC3)no1` [Example 6, N-(3-cyanophenyl)-N-((4-(5-(1,1-difluoroethyl)-1,2,4-oxadiazol-3-yl)bicyclo[2.2.2]octan-1-yl)methyl)-4,4-difluorocyclohexane-1-carboxamide], the EC50 was 106 nM.
For `CC(F)(F)c1nc(C23CCC(CN(C(=O)C45CC(F)(C4)C5)c4cccc(F)c4)(CC2)CC3)no1` [Example 7, N-((4-(5-(1,1-difluoroethyl)-1,2,4-oxadiazol-3-yl)bicyclo[2.2.2]octan-1-yl)methyl)-3-fluoro-N-(3-fluorophenyl)bicyclo[1.1.1]pentane-1-carboxamide], the EC50 was 30 nM.
`CC(F)(F)c1nc(C23CCC(CN(c4cccc(F)c4)C(=O)[C@H]4C[C@](O)(C(F)(F)F)C4)(CC2)CC3)no1` [Example 8, N-((4-(5-(1,1-difluoroethyl)-1,2,4-oxadiazol-3-yl)bicyclo[2.2.2]octan-1-yl)methyl)-N-(3-fluorophenyl)-3-hydroxy-3-(trifluoromethyl)cyclobutane-1-carboxamide] showed an EC50 of 462 nM.
With `CC(F)(F)c1nc(C23CCC(CN(C(=O)C4CCC(F)(F)CC4)c4cccc(F)c4)(CC2)CC3)no1` [Example 9, N-((4-(5-(1,1-difluoroethyl)-1,2,4-oxadiazol-3-yl)bicyclo[2.2.2]octan-1-yl)methyl)-4,4-difluoro-N-(3-fluorophenyl)cyclohexane-1-carboxamide] the EC50 was 451 nM.
For `CC(F)(F)c1nc(C23CCC(CN(C(=O)C45CC(F)(C4)C5)c4ccc(F)c(F)c4)(CC2)CC3)no1` [Example 10, N-((4-(5-(1,1-difluoroethyl)-1,2,4-oxadiazol-3-yl)bicyclo[2.2.2]octan-1-yl)methyl)-N-(3,4-difluorophenyl)-3-fluorobicyclo[1.1.1]pentane-1-carboxamide], the EC50 was 124 nM.
`CC(F)(F)c1nc(C23CCC(CN(C(=O)C4CCC(F)(F)CC4)c4ccc(F)c(F)c4)(CC2)CC3)no1` [Example 11, N-((4-(5-(1,1-difluoroethyl)-1,2,4-oxadiazol-3-yl)bicyclo[2.2.2]octan-1-yl)methyl)-N-(3,4-difluorophenyl)-4,4-difluorocyclohexane-1-carboxamide] was tested, and the EC50 was 881 nM.
For `CC(F)(F)c1nc(C23CCC(CN(C(=O)C45CC(F)(C4)C5)c4cccc(OC(F)F)c4)(CC2)CC3)no1` [Example 12, N-((4-(5-(1,1-difluoroethyl)-1,2,4-oxadiazol-3-yl)bicyclo[2.2.2]octan-1-yl)methyl)-N-(3-(difluoromethoxy)phenyl)-3-fluorobicyclo[1.1.1]pentane-1-carboxamide], the EC50 was 73 nM.
In the case of `CC(F)(F)c1nc(C23CCC(CN(c4cccc(OC(F)F)c4)C(=O)[C@H]4C[C@](O)(C(F)(F)F)C4)(CC2)CC3)no1` [Example 13, N-((4-(5-(1,1-difluoroethyl)-1,2,4-oxadiazol-3-yl)bicyclo[2.2.2]octan-1-yl)methyl)-N-(3-(difluoromethoxy)phenyl)-3-hydroxy-3-(trifluoromethyl)cyclobutane-1-carboxamide], the EC50 is reported as 302 nM.
With `CC(F)(F)c1nc(C23CCC(CN(C(=O)C45CC(F)(C4)C5)c4cccc(C(F)(F)F)c4)(CC2)CC3)no1` [Example 14, N-((4-(5-(1,1-difluoroethyl)-1,2,4-oxadiazol-3-yl)bicyclo[2.2.2]octan-1-yl)methyl)-3-fluoro-N-(3-(trifluoromethyl)phenyl)bicyclo[1.1.1]-pentane-1-carboxamide] the EC50 was 29 nM.
`CC(F)(F)c1nc(C23CCC(CN(c4cccc(C(F)(F)F)c4)C(=O)[C@H]4C[C@](O)(C(F)(F)F)C4)(CC2)CC3)no1` [Example 15, N-((4-(5-(1,1-difluoroethyl)-1,2,4-oxadiazol-3-yl)bicyclo[2.2.2]octan-1-yl)methyl)-3-hydroxy-3-(trifluoromethyl)-N-(3-(trifluoromethyl)phenyl)cyclobutane-1-carboxamide] showed an EC50 of 176 nM.
With `CC(F)(F)c1nc(C23CCC(CN(C(=O)C4CCC(F)(F)CC4)c4cccc(C(F)(F)F)c4)(CC2)CC3)no1` [Example 16, N-((4-(5-(1,1-difluoroethyl)-1,2,4-oxadiazol-3-yl)bicyclo[2.2.2]octan-1-yl)methyl)-4,4-difluoro-N-(3-(trifluoromethyl)phenyl)cyclohexane-1-carboxamide] the EC50 was 315 nM.
In the case of `COc1cc(N(CC23CCC(c4noc(C(C)(F)F)n4)(CC2)CC3)C(=O)C23CC(F)(C2)C3)ccn1` [Example 17, N-((4-(5-(1,1-difluoroethyl)-1,2,4-oxadiazol-3-yl)bicyclo[2.2.2]octan-1-yl)methyl)-3-fluoro-N-(2-methoxypyridin-4-yl)bicyclo[1.1.1]pentane-1-carboxamide], the EC50 is reported as 149 nM.
`CC(F)(F)c1nc(C23CCC(CN(C(=O)C45CC(F)(C4)C5)c4cccc(S(=O)(=O)NC5CC5)c4)(CC2)CC3)no1` [Example 18, N-(3-(N-cyclopropylsulfamoyl)phenyl)-N-((4-(5-(1,1-difluoroethyl)-1,2,4-oxadiazol-3-yl)bicyclo[2.2.2]octan-1-yl)methyl)-3-fluorobicyclo[1.1.1]pentane-1-carboxamide] was tested, and the EC50 was 1560 nM.
Compound `CC(F)(F)c1nc(C23CCC(CN(c4cccc(S(=O)(=O)NC5CC5)c4)C(=O)[C@H]4C[C@](O)(C(F)(F)F)C4)(CC2)CC3)no1` [Example 19, (1S,3S)-N-(3-(N-cyclopropylsulfamoyl)phenyl)-N-((4-(5-(1,1-difluoroethyl)-1,2,4-oxadiazol-3-yl)bicyclo[2.2.2]octan-1-yl)methyl)-3-hydroxy-3-(trifluoromethyl)cyclobutane-1-carboxamide] has an EC50 of 4000 nM.
